Tested on: P. yoelii parasites in erythrocytes
Test: Selenomethionine prodrug, 24 hour culture of parasitized blood, damaged parasites by flow cytometry
Type: cell-based
Procedure: Blood was harvested and pooled from three mice infected with the murine Plasmodium parasite P. yoelii. Pooled blood parasitemia was 4.0%. Erythrocytes were extracted from the blood and washed to remove debris. The cells were then incubated with excess mCGL-AV for 3 hours. After incubation, the cells were then washed to remove excess protein and debris. Samples were then incubated under an oxygen reduced atmosphere mimicking the conditions of blood within the body for 24 hours with varying concentrations of selenomethionine. Damaged parasites were enumerated via flow cytometry. The number of damaged parasites is expressed as a percentage of the total number of parasites. Error bars represent the standard error of n=3 repeats of the assay for the same pooled blood.
To insure that healthy red blood cells were not damaged by such high concentrations of mCGL-AV, samples of treated and untreated blood were imaged using light microscopy to search for signs of hemolysis.

## C[Se]CC[C@H](N)C(=O)O [selenomethionine]
24 hours of culture, varying concentrations of selenomethionine, no fusion protein
  impact on parasite viability, selenomethionine by itself: no significant impact on parasite viability
Excess mCGL-AV 3 hours, wash, then 24 hours with varying concentrations of selenomethionine
  damaged parasites with selenomethionine plus mCGL-AV: boosted the cytotoxicity of the fusion protein

Reference: patent US11446365B2, “Antimalarial enzyme conjugates, kits containing same, and methods of producing and using same” (priority 2017, dated 2022)
